Where a name gives a salt, the structure may show the parent alone. Read-outs that look alike come from different tables or passages of the source. Values belong to the compound of their own block, whether it stands above or below them.
Key:
[1] = test system: transgenic T.cruzi Brazil luc strain; assay: 4-day mouse model of infection, luciferase readout; assay type: in vivo, Trypanosoma cruzi; settings: for Chagas mouse model (4 days treatment, luciferase): In vivo efficacy at 50 mg/kg bid (IP): Balb/c mice, 50 mg/kg b.i.d. IP, read at day 7 post-infection, benznidazole = 100%, vehicle = 0%
Source text: To assess in vivo efficacy of test compounds, a 4-day mouse model of infection by transgenic T.cruzi Brazil luc strain expressing firefly luciferase was used as previously described. Six-week-old female Balb/c mice (average weight 20g) were obtained from Simonsen Labs (Gilroy, CA). All animal protocols were approved and carried out in accordance with the guidelines established by the Institutional Animal Care and Use Committee from UCSD (Protocol S14187). Mice were housed at a maximum of 5 per cage and kept in a specific-pathogen-free (SPF) room at 20 to 24°C under a 12-h light/12-h dark cycle and provided with sterilized water and chow ad libitum. To infect the mice, trypomastigotes of T. cruzi Brazil luc strain were used. The parasites were harvested from culture supernatant 7 days after the infection of C2C12 myocytes in T.75 culture flasks using DMEM media supplemented with 5% FBS. The harvested parasites were counted and the density was adjusted for 10^6 parasites per milliliter of DMEM media without FBS. For the mouse infection, 100 ul of the parasite solution was injected intraperitoneally (10^5 trypomastigotes) per mouse. Starting on day 3 the infected mice were treated with test compounds at 50 mg/kg administered in 20% Kolliphor, IP, b.i.d., for four consecutive days. Two control groups included untreated mice, which received a vehicle (20% Kolliphor HS 15, a.k.a. Solutol), and the positive control groups, which received 50 mg/kg benznidazole, IP, twice a day (b.i.d). At day 7 post-infection, the luminescent signal from infected mice was read upon injection of D-luciferin. The absolute numbers of measured photons/s/cm^2 were averaged between all five mice in each group. The average photons/s/cm^2 from the group treated with benznidazole was normalized as 100% efficacy and the average photons/s/cm^2 from the group treated with vehicle only was normalized as 0% efficacy. Using a linear correlation, the average photons/s/cm^2 of each compound was normalized in the same efficacy scale as the controls.

[2] = test system: T. cruzi Tulahuen genetically modified to express Beta-galactosidase; settings: cited from earlier work; for EC50: Broad dataset, read-out: EC50 in the Broad dose response dataset
T. cruzi CA-I/72 = assay: Secondary screening (dose-response assay); assay type: cell-based, Trypanosoma cruzi
Experimental: (§1) T. cruzi CA-I/72 trypomastigotes were obtained from C2C12 infected-culture supernatants after 4–7 days of infection. Cultures were maintained at 37°C with 5% CO2. […] Compounds were added at 10 mM in 50 nl per well using a Biomek FX (Beckman Coulter) for a final 10 μM concentration in 50 μl total volume, and 2,500 parasites were added in 10 μl per well. The plate was incubated for 72 hours at 37°C with 5% CO2. After the incubation, the plate was fixed with the addition of 50 μl of 8% paraformaldehyde solution, followed by two successive washing steps using PBS. Finally, a staining solution containing 0.5 μg/ml of 4',6-diamidino-2-phenylindole (DAPI) was added to each well of the plate and incubated for at least 4 hours prior to reading. Images were acquired by an IN Cell Analyzer 2000 (GE Healthcare) and analyzed by IN Cell Analyzer Developer 1.6 software. […] Numbers of host cells and intracellular amastigotes were determined based on host cell and parasite nucleus quantification, providing a measure of growth inhibition during the first 72 h of post-infection treatment compared to untreated controls. […] The host cell viability was assessed based on the total number of cells divided by the average number of cells from untreated controls (0.1% DMSO), being <0.5 considered a cytotoxic compound. This assay was performed in duplicate.
The hit selection criteria: >50% activity at 10 μM and >0.5 host cell viability in the primary screening. To determine the potency of the hit compounds, we performed a dose-response assay. EC50 values of compounds were determined applying the same assay used in the primary screening. […] Then, 50 nl of each sample were diluted in 50 μl media (DMEM H-21) and added to the experimental plate followed by incubation at 37°C with 5% CO2 for 72 h.

Host cell cytotoxicity = assay type: cell-based; settings: mouse; C2C12 host cells
Experimental: as §1

T. cruzi = test system: T. cruzi; set-up: method as in PMID 21912715; settings: retest of Broad HTS hits in one study; cited from earlier work
[3] = Trypanosoma cruzi, C2C12, 72 h, intracellular T. cruzi in C2C12 cells, 72 h, read-out: EC50
[4] = Trypanosoma cruzi, intracellular T. cruzi in C2C12 cells, 72 h, read-out: EC90
[5] = intracellular T. cruzi in C2C12 cells, 72 h, read-out: EC50

Compound: O=C(NCO)N/N=C/c1ccc([N+](=O)[O-])o1 [hydroxymethylnitrofurazone, Hydroxymethylnitrofurazone]
- Chagas mouse model (4 days treatment, luciferase): In vivo efficacy at 50 mg/kg bid (IP) ([1]; 50 mg/kg): 78.5%

Compound: O=C1OCCN1/N=C/c1ccc([N+](=O)[O-])o1 [SC-0011742, Furazolidone]
- Chagas mouse model (4 days treatment, luciferase): In vivo efficacy at 50 mg/kg bid (IP) ([1]; listed as Furazolidone, 50 mg/kg): 100.5%
- Chagas mouse model (4 days treatment, luciferase): In vivo efficacy at 50 mg/kg bid (IP) ([1]; listed as furazolidone, 50 mg/kg): 100%

Compound: COc1ccc2cc1Oc1ccc(cc1)C[C@H]1c3cc(c(OC)cc3CCN1C)Oc1c(OC)c(OC)cc3c1[C@H](C2)N(C)CC3 [SC-0011496, Tetrandrine]
- Result in the larger Broad HTS screening dataset to identify inhibitors of replication [2]: inactive
- EC50 (T. cruzi CA-I/72; [3]): < 1000 nM
- EC90 (T. cruzi CA-I/72; [4]): 1570 nM
- EC50 (T. cruzi CA-I/72; [5]): 508 nM
- Chagas mouse model (4 days treatment, luciferase): In vivo efficacy at 50 mg/kg bid (IP) [1]: 43.6%
- Statistical significance of in vivo efficacy ([1]; Student t test vs vehicle at day 7, p≤ 0.05): does not appear to have statistically significant efficacy in vivo
- CC50 at 72 h (Host cell cytotoxicity): 1300 nM

Compound: COc1ccc(CCN(C)CCCC(C#N)(c2ccc(OC)c(OC)c2)C(C)C)cc1OC (racemic) [SC-0005695, (±)-Verapamil hydrochloride]
- EC50 [2]: < 100 nM
- IC50 (T. cruzi): > 50000 nM
- EC90 (T. cruzi CA-I/72; Trypanosoma cruzi, C2C12, 72 h): 143 nM
- EC50 (T. cruzi CA-I/72; intracellular T. cruzi in C2C12 cells, 72 h, listed as (±)-Verapamil hydrochloride): 38.3 nM
- EC50 (T. cruzi CA-I/72; intracellular T. cruzi in C2C12 cells, 72 h, listed as verapamil): < 1000 nM
- Chagas mouse model (4 days treatment, luciferase): In vivo efficacy at 50 mg/kg bid (IP) [1]: 55.1%

- EC50 (T. cruzi CA-I/72; [3]): < 1000 nM
- EC90 (T. cruzi CA-I/72; [4]): 6980 nM
- EC50 (T. cruzi CA-I/72; [5]): 775 nM
Compound: NC(=O)N/N=C/c1ccc([N+](=O)[O-])o1 [SC-0011754, Nitrofural]
- CC50 at 72 h (Host cell cytotoxicity): > 10000 nM

Compound: COc1ccc2nc3cc(Cl)ccc3c(Nc3cc(CN4CCCC4)c(O)c(CN4CCCC4)c3)c2n1 [SC-0011799, Pyronaridine]
- EC50 [2]: < 587 nM
- EC90 (T. cruzi CA-I/72; [4]): 665 nM
- EC50 (T. cruzi CA-I/72; intracellular T. cruzi in C2C12 cells, 72 h, listed as Pyronaridine, read-out: EC50): 225 nM
- EC50 (T. cruzi CA-I/72; intracellular T. cruzi in C2C12 cells, 72 h, listed as pyronaridine, read-out: EC50): < 1000 nM
- Chagas mouse model (4 days treatment, luciferase): In vivo efficacy at 50 mg/kg bid (IP) [1]: 85.2%
- CC50 at 72 h (Host cell cytotoxicity): 3000 nM

Compound: O=C(Cn1ccnc1[N+](=O)[O-])NCc1ccccc1 [Benznidazole]
- Chagas mouse model (4 days treatment, luciferase): In vivo efficacy at 50 mg/kg bid (IP) [1]: 100%

Source: publication PMC4482694, “Machine Learning Models and Pathway Genome Data Base for Trypanosoma cruzi Drug Discovery” (PLoS Neglected Tropical Diseases, 2015)
